# Assay results taken from ChEMBL document CHEMBL4396897, “Potent 5-Cyano-6-phenyl-pyrimidin-Based Derivatives Targeting DCN1-UBE2M Interaction” (J Med Chem, 2019).
# Legend:
# Format in all cases: functional
# NCI-H1975 [1] = test: Induction of apoptosis in human NCI-NCI-H1975 cells assessed as early apoptotic cells at 2.5 uM after 48 hrs by Annexin V-FITC/propidium iodide staining based flow cytometry (reference value: 2.47%)
# A549 = test: Induction of apoptosis in human A549 cells assessed as necrotic cells at 10 uM after 48 hrs by Annexin V-FITC/propidium iodide staining based flow cytometry (reference value: 0.88%)
# NCI-H1975 [2] = test: Induction of apoptosis in human NCI-NCI-H1975 cells assessed as viable cells at 10 uM after 48 hrs by Annexin V-FITC/propidium iodide staining based flow cytometry (reference value: 96.1%); conditions: NCI-H1975, 48 h, read-out: Activity
smiles,measurement,setting,value
C#CCSc1nc(Sc2nccs2)c(C#N)c(-c2ccc(C)cc2)n1,Activity,NCI-H1975 [1],9.47%
same,Activity,A549,0.72%
same,viability at 10 µM,NCI-H1975 [2],17.1%
